The values that follow come from US7592326B2, “Method for stimulating the immune, inflammatory or neuroprotective response” (priority 2004, dated 2009).

For test [1], the system named is monocytes and granulocytes. Kind of test: Monocyte and granulocyte recruitment after intraperitoneal injection (FACS of peritoneal fluid). The test is classed as in vivo, C57BL/6 mice. The protocol:
C57BL/6 mice were injected with a volume of 500 ul containing 200 nmol c-di-GMP. […] Fluid was incubated in PBS BSA azide +24G2 (anti Fc) for 15 min at 4° C., washed in PBS, washed in PBS then stained and analyzed by FACs analysis (PBS BSA azide, 30 min 4° C.). Cells were stained with directly coupled fluorescent mAbs combinations in […] FACS buffer and further collected on a FACScalibur cytofluorometer (Becton Dickinson, BD). The following mAbs were purchased: fluorescein (FITC)-coupled M1/70 (anti-CD11b, BD Pharmingen), phycoerythrin (PE)-coupled 1A8 (anti-LY-6G, BD Pharmingen), 7/4 (Caltag), allophycocyanin (APC)-coupled F4/80 (Caltag). Cells were gated according to size and scatter to eliminate dead cells and debris from analysis.

Another test has as its system p38 MAPK. Kind of test: Western blot signaling in human DCs: p38 MAPK. The following applies: 5 and 20 min treatment, FIG. 13A. The test is classed as cell-based. Here is the method:
(§1) Human PBMC were isolated by Ficoll density gradient centrifugation from leukopacks supplied by the Department of Transfusion Medicine (Clinical Center, National Institute of Health, Bethesda, Md.). Monocytes were purified (>95%) from human PBMC with MACS CD14 monocyte isolation kit (Miltenyi Biotech Inc., Auburn, Calif.) according to the manufacturer's instruction. DCs were generated as described previously (Yang et al., 2001). In brief, DCs were generated by incubating purified monocytes at 2×10^5/ml in RPMI 1640 containing 10% FBS, 2 mM glutamine, 25 mM HEPES, 100 U/ml penicillin, 100 ug/ml streptomycin, 50 ng/ml recombinant human GM-CSF (PeproTech, Rocky Hill, N.J.), and 50 ng/ml recombinant human IL-4 (PeproTech) at 37° C. in a CO2 (5%) incubator for 7 days. On day 3 and 5 of the incubation, half of the culture medium was replaced with pre-warmed (37° C.) fresh GM-CSF- and IL-4-containing medium. On day 7, DCs were collected, washed three times with PBS, and serum-starved for 8 hours by incubating in serum-free RPMI-1640 containing GM-CSF and IL-4 (2×10^5/ml) at 37° C. in a CO2 (5%) incubator. Subsequently, DCs (2×10^6/sample) were incubated at 37° C. in the absence or presence of c-di-GMP or GMP (Sigma, St. Louis, Mo.) at concentrations specified for 5 or 30 minutes. […]

In a further test the test system is NF-κB. Put plainly: Western blot signaling in human DCs: NF-κB (I-κBα degradation). The test is classed as cell-based. The settings on record: up to 30 min. The protocol: as §1
The next test has as its system JNK. Put plainly: Signaling in human DCs: JNK. The following applies: under the conditions tested. The test is classed as cell-based. The protocol:
as §1

Test [2] has as its system K. pneumoniae strain 43816, serotype 2. Kind of test: Survival in murine Klebsiella pneumonia. The test is classed as in vivo.
Test [3] has as its system cytokine mRNA in whole lung. Kind of test: Cytokine mRNA levels in whole lung homogenates (quantitative PCR). The test is classed as in vivo, Balb/c mice.
Test [4] relates to Influenza virus B/Yamanashi/166/98. Put plainly: Influenza vaccination model in mice, c-diGMP as adjuvant (proposed). The test is classed as in vivo. The settings on record: two vaccinations 3 weeks apart.
A further test relates to human basophils. Kind of test: IL-3 dependent IL-13 secretion by human basophils. The following applies: under the conditions tested. The test is classed as cell-based.
For the next test, the system named is basophils. Kind of test: SOCS expression in basophils (real-time PCR). The test is classed as cell-based, human. Here is the method: Whether or not cyclic dinucleotides affected induction of SOCS (Suppresser Of Cytokine Synthesis) expression in basophils treated with CDN's was then tested. […] Cells were treated for 18 h, total RNA isolated, and RT-PCR performed for SOCS-1, SOCS-3, and the HPRT housekeeping gene. The fact that cGpGp also induces SOCS-1 may explain why some inhibition of IL-3-induced IL-13 secretion is observed with this cyclic dinucleotide analog. […] In the current IL-13 assay, the cyclic dinucleotide is added simultaneously with IL-3. The TBDMS-cGpGp likely induces SOCS-1 expression faster and thus accounts for greater inhibition of IL-13. […] While modest inhibitory activity with cGpGp was observed, evidence that cGpGp induces SOCS-1 and sometimes better than TBDMS-cGpGp at this particular time point was observed. These differences might be explained by kinetics and it may be that SOCS gene expression would be higher following TBDMS-cGpGp treatment when examined at an earlier time point.

Each structure is given as a SMILES string.

As for `Nc1nc(=O)c2ncn([C@@H]3OC4COP(=O)(O)O[C@H]5[C@@H](O)[C@H](n6cnc7c(=O)nc(N)[nH]c76)O[C@@H]5COP(=O)(O)OC4C3O)c2[nH]1` (some centres unmarked) [c-di-GMP, Bis(3′→5′)-cyclic diguanylic acid], the “recruitment of F4/80^high LY-6G^med (monocytes) and F4/80^med LY-6G^high (granulocytes)” value in [1] (200 nmol i.p., peritoneal lavage at 18 hours) was “induced the recruitment”. In test [1] (under the conditions tested), the “macrophage and granulocyte recruitment in vivo relative to comparators” value was “to a greater extent than CpG ODN and LPS”. The “activation of p38 MAPK (phospho-p38)” value with p38 MAPK is recorded as “activated”. In the test on NF-κB, the “activation of NF-κB (I-κBα degradation)” value is listed as “did not activate”. The “activation of JNK” value in the test with JNK is “did not activate”. In addition, the “survival following i.t. Klebsiella challenge” value in test [2] (200 nmoles i.n. 48 and 24 hrs prior, Balb/c mice, vehicle approx. 10%, p<0.05, FIG. 15) is “significantly increased”; in test [2] (200 nmoles s.q. 48 and 24 hrs prior, Balb/c mice, p<0.05, FIG. 15), “significantly increased”; in test [2] (given concomitantly and 6 hrs post K. pneumoniae, data not shown) it was “no increase in survival”. The “IL-12 p40 levels vs control c-GMP” value in test [3] (24 and 48 hrs post bacterial challenge) is given as “increased”. For the same molecule, in test [3] (24 hr post Klebsiella challenge, p<0.05, FIG. 17D), the “MIP-2 mRNA, increase over infected control (c-GMP)” value worked out at 2 fold. Further, in test [3] (24 hrs post K. pneumoniae, p<0.05), the “IP-10 and IFN-gamma mRNA levels vs control c-GMP” value is recorded as “significantly higher”. Moreover, the “type 1 cytokines IL-12 p40, IFN-gamma, and IP-10 in the lungs” value in test [3] (i.n. pre-treatment, time 0 (pre-infection)) is “induction”. Moreover, the “induction of TNF-α in response to i.t. bacterial administration” value in test [3] (pretreatment, data not shown) was “did not significantly alter”. For the same molecule, the survival after challenge entry in [4] is reported as “greater survival”. Further, the “effect on IL-13 induced by IL-3” value in the test with human basophils is recorded as “essentially no inhibition”. For the same molecule, the “time of SOCS mRNA peak” value with basophils is approximately 18 h. Moreover, in the test with basophils (18 h treatment), the “SOCS-1 mRNA” value was “induced”.
